The target of assay [1] is T1, recombinant N-terminal GST-tagged human Rho kinase 1 (ROCK1, amino acids 1-535) (Homo sapiens, UniProt Q13464).
T1 construct: ROCK1, amino acids 1-535; purchased Invitrogen Inc. PV-3691
Briefly: In vitro Rho kinase assay (luciferase-based ATP consumption), ROCK1. The format is biochemical. Put shortly:
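ATP depletion measured by firefly luciferase luminescence after 2 h at 30 °C, with inhibition raising signal and activity expressed relative to H-1152P. Reaction: 0.82 μg/ml recombinant GST-tagged ROCK1 (aa 1-535), S6 peptide 100 μg/ml, […], pH 7.5 Tris buffer.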

Assay [2] has as its target T2, recombinant N-terminal GST-tagged human Rho kinase 2 (ROCK2, amino acids 1-552) (Homo sapiens, UniProt O75116).
T2 construct: ROCK2, amino acids 1-552; purchased Invitrogen Inc. PV3759
In words: In vitro Rho kinase assay (luciferase-based ATP consumption), ROCK2. In kind it is biochemical. Put shortly:
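Luciferase-based luminescence of leftover ATP after 2 h at 30 °C, where inhibition raises signal, reports activity of GST-tagged ROCK2 (aa 1-552) at 0.82 μg/ml. Conditions: S6 peptide 100 μg/ml, […], pH 7.5 Tris buffer. Results given as percent of H-1152P control activity.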

Setting [3] is: recombinant GST-tagged human ROCK1, luciferase-based ATP consumption, read-out: ROCK1 IC50.
[4] abbreviates: recombinant GST-tagged human ROCK2, luciferase-based ATP consumption, read-out: ROCK2 IC50.
Where [5] appears, read: ROCK1 IC50, recombinant GST-tagged human ROCK1, luciferase-based ATP consumption.
Setting [6] is: ROCK2 IC50, recombinant GST-tagged human ROCK2, luciferase-based ATP consumption.

pIC50: −log10 of the molar value. Like-named read-outs stand apart in the source and are kept apart here.

The values that follow come from US20080021026A1, “BENZOTHIOPHENE INHIBITORS OF RHO KINASE” (priority 2006, published 2008).

T2 sequence (O75116 1-552): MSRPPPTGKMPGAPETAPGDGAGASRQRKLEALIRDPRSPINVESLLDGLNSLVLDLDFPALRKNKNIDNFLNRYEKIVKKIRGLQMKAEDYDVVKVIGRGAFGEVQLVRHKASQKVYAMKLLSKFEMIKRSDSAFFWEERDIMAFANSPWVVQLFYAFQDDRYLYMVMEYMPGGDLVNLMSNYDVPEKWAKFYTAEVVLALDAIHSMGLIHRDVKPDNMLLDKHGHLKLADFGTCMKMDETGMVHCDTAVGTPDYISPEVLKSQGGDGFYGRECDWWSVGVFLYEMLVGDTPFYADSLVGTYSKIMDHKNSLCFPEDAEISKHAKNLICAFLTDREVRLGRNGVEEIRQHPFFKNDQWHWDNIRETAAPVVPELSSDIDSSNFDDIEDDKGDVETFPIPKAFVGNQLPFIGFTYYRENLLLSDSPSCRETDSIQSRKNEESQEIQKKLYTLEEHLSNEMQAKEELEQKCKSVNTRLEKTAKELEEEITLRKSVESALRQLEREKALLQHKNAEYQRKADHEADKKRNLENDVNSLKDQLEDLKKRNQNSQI
T1 sequence (Q13464 1-535): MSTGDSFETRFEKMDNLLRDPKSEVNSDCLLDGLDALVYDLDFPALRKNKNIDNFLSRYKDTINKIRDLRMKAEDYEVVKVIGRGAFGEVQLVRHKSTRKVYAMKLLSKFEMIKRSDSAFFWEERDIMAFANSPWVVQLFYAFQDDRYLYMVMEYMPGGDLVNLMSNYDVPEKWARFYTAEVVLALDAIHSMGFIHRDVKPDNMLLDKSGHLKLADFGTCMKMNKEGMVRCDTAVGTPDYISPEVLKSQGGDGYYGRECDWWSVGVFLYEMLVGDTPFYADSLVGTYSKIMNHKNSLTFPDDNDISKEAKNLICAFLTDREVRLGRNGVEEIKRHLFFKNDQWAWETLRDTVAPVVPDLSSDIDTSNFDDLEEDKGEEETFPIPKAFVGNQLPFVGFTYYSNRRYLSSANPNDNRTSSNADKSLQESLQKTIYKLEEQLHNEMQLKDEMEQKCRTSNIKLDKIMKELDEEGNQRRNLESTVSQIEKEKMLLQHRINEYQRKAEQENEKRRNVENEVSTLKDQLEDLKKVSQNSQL

The term pIC50 denotes −log10 of the IC50, conventionally taken in molar units. On to `CCOc1ccc2ccccc2c1C(=O)NCc1ccc2sc(-c3ccnc(N)n3)c(C)c2c1` [Example 291, CCOc1ccc2ccccc2c1C(═O)NCc3ccc4sc(c(C)c4c3)-c5ccnc(N)n5], for which the figures for the pIC50 in assay [1] (setting [3]) and in assay [2] (setting [4]) were less than 5.30 and greater than 5.30, respectively.
The like results for `Cc1c(-c2ccnc(N)n2)sc2ccc(CNC(=O)C(NC(=O)OC(C)(C)C)C(C)C)cc12` (stereo not drawn) [Example 292, CC(C)[C](NC(═O)OC(C)(C)C)C(═O)NCc1ccc2sc(c(C)c2c1)-c3ccnc(N)n3] were, in that order, greater than 5.30 and less than 5.30.
On to `Cc1c(-c2ccnc(N)n2)sc2ccc(CNC(=O)CCc3cccc(C(F)(F)F)c3)cc12` [Example 294, Cc1c(sc2ccc(CNC(═O)CCc3cccc(c3)C(F)(F)F)cc12)-c4ccnc(N)n4], for which the pIC50 in assay [1] (setting [3]) and in assay [2] (setting [4]) was greater than 5.30 each time.
Regarding `CC1=NN(c2ccc(C(=O)NCc3ccc4sc(-c5ccnc(N)n5)c(C)c4c3)cc2)C(=O)C1` [Example 295, CC1═NN(C(═O)C1)c2ccc(cc2)C(═O)NCc3ccc4sc(c(C)c4c3)-c5ccnc(N)n5], the pIC50 was greater than 5.30 in assay [1] (setting [3]) and less than 5.30 in assay [2] (setting [4]).
The like results for `Cc1nc(Br)sc1C(=O)NCc1ccc2sc(-c3ccnc(N)n3)c(C)c2c1` [Example 296, Cc1nc(Br)sc1C(═O)NCc2ccc3sc(c(C)c3c2)-c4ccnc(N)n4] were, in that order, less than 5.30 and greater than 5.30.
With `Cc1c(-c2ccnc(N)n2)sc2ccc(CNC(=O)c3c4ccccc4cc4ccccc34)cc12` [Example 297, Cc1c(sc2ccc(CNC(═O)c3c4ccccc4cc5ccccc35)cc12)-c6ccnc(N)n6], the pIC50 in assay [1] (setting [3]) and in assay [2] (setting [4]) was greater than 5.30 each time.
Regarding `Cc1c(-c2ccnc(N)n2)sc2ccc(CNC(=O)c3cc(C(C)C)cc(C(C)C)c3O)cc12` [Example 298, CC(C)c1cc(C(C)C)c(O)c(c1)C(═O)NCc2ccc3sc(c(C)c3c2)-c4ccnc(N)n4], the pIC50 in assay [1] (setting [3]) and in assay [2] (setting [4]) was greater than 5.30 throughout.
For `CC(=O)NC(Cc1ccc(O)cc1)C(=O)NCc1ccc2sc(-c3ccnc(N)n3)c(C)c2c1` (stereo not drawn) [Example 299, CC(═O)N[C](Cc1ccc(O)cc1)C(═O)NCc2ccc3sc(c(C)c3c2)-c4ccnc(N)n4], the pIC50 in assay [1] (setting [3]) and in assay [2] (setting [4]) was less than 5.30 throughout.
Turning to `Cc1c(-c2ccnc(N)n2)sc2ccc(CNC(=O)c3c(Cl)cc(Cl)cc3Cl)cc12` [Example 300, Cc1c(sc2ccc(CNC(═O)c3c(Cl)cc(Cl)cc3Cl)cc12)-c4ccnc(N)n4], the pIC50 in assay [1] (setting [5]) is less than 5.30; in assay [2] (setting [6]) it was greater than 5.30.
`COc1cc(C(=O)NCc2ccc3sc(-c4ccnc(N)n4)c(C)c3c2)c([N+](=O)[O-])cc1OC` [Example 301, COc1cc(C(═O)NCc2ccc3sc(c(C)c3c2)-c4ccnc(N)n4)c(cc1OC)[N+]([O−])═O]: the values for the pIC50 in assay [1] (setting [3]) and in assay [2] (setting [4]) were less than 5.30 and greater than 5.30, respectively.
The like results for `Cc1c(-c2ccnc(N)n2)sc2ccc(CNC(=O)c3ccc(OCc4ccccc4)cc3)cc12` [Example 302, Cc1c(sc2ccc(CNC(═O)c3ccc(OCc4ccccc4)cc3)cc12)-c5ccnc(N)n5] were, in that order, less than 5.30 and less than 5.30.
Consider `Cc1c(-c2ccnc(N)n2)sc2ccc(CNC(=O)CCc3ccccc3Br)cc12` [Example 303, Cc1c(sc2ccc(CNC(═O)CCc3ccccc3Br)cc12)-c4ccnc(N)n4], for which the pIC50 in assay [1] (setting [3]) and in assay [2] (setting [4]) was less than 5.30 in each case.
Consider `Cc1c(-c2ccnc(N)n2)sc2ccc(CNC(=O)CCc3cccc(Br)c3)cc12` [Example 304, Cc1c(sc2ccc(CNC(═O)CCc3cccc(Br)c3)cc12)-c4ccnc(N)n4], for which the results for the pIC50 in assay [1] (setting [3]) and in assay [2] (setting [4]) were less than 5.30 and greater than 5.30, respectively.
On to `Cc1c(-c2ccnc(N)n2)sc2ccc(CNC(=O)C3CCCCN3C(=O)OC(C)(C)C)cc12` (stereo not drawn) [Example 305, Cc1c(sc2ccc(CNC(═O)[C]3CCCCN3C(═O)OC(C)(C)C)cc12)-c4ccnc(N)n4], for which the pIC50 in assay [1] (setting [3]) and in assay [2] (setting [4]) was less than 5.30 in each case.
For the compound `Cc1c(-c2ccnc(N)n2)sc2ccc(CNC(=O)c3ccc(Oc4cccc(O)c4)cc3)cc12` [Example 306, Cc1c(sc2ccc(CNC(═O)c3ccc(Oc4cccc(O)c4)cc3)cc12)-c5ccnc(N)n5], the pIC50 in assay [1] (setting [3]) is less than 5.30; in assay [2] (setting [4]) it was greater than 5.30.
For `COc1ccc2cc(C(C)C(=O)NCc3ccc4sc(-c5ccnc(N)n5)c(C)c4c3)ccc2c1` (stereo not drawn) [Example 307, COc1ccc2cc(ccc2c1)[C](C)C(═O)NCc3ccc4sc(c(C)c4c3)-c5ccnc(N)n5], the pIC50 in assay [1] (setting [3]) is greater than 5.30; in assay [2] (setting [4]), less than 5.30.
The corresponding values for `Cc1c(-c2ccnc(N)n2)sc2ccc(CNC(=O)C3CN(C(=O)OC(C)(C)C)CCN3)cc12` (stereo not drawn) [Example 308, Cc1c(sc2ccc(CNC(═O)[C]3CN(CCN3)C(═O)OC(C)(C)C)cc12)-c4ccnc(N)n4] are less than 5.30 and less than 5.30.
The corresponding values for `COc1ccc(Br)c(C(=O)NCc2ccc3sc(-c4ccnc(N)n4)c(C)c3c2)c1` [Example 310, COc1ccc(Br)c(c1)C(═O)NCc2ccc3sc(c(C)c3c2)-c4ccnc(N)n4] are less than 5.30 and greater than 5.30.
The like results for `Cc1c(-c2ccnc(N)n2)sc2ccc(CNC(=O)C3CC(O)CN3C(=O)OC(C)(C)C)cc12` (stereo not drawn) [Example 311, Cc1c(sc2ccc(CNC(═O)[C]3CC(O)CN3C(═O)OC(C)(C)C)cc12)-c4ccnc(N)n4] were, in that order, less than 5.30 and less than 5.30.
Consider `Cc1c(-c2ccnc(N)n2)sc2ccc(CNC(=O)C(C(C)C)N(C)C(=O)OC(C)(C)C)cc12` (stereo not drawn) [Example 312, CC(C)C(N(C)C(═O)OC(C)(C)C)C(═O)NCc1ccc2sc(c(C)c2c1)-c3ccnc(N)n3], for which the pIC50 in assay [1] (setting [3]) and in assay [2] (setting [4]) was less than 5.30 each time.
On to `Cc1c(-c2ccnc(N)n2)sc2ccc(CNC(=O)c3ccc(C(F)(F)F)cc3[N+](=O)[O-])cc12` [Example 313, Cc1c(sc2ccc(CNC(═O)c3ccc(cc3[N+]([O−])═O)C(F)(F)F)cc12)-c4ccnc(N)n4], for which the pIC50 in assay [1] (setting [3]) and in assay [2] (setting [4]) was greater than 5.30 in each case.
`Cc1c(-c2ccnc(N)n2)sc2ccc(CNC(=O)c3cc(Br)ccc3Cl)cc12` [Example 314, Cc1c(sc2ccc(CNC(═O)c3cc(Br)ccc3Cl)cc12)-c4ccnc(N)n4]: the pIC50 in assay [1] (setting [5]) and in assay [2] (setting [6]) was greater than 5.30 each time.
With `Cc1c(-c2ccnc(N)n2)sc2ccc(CNC(=O)c3ccc(Cl)c(Br)c3)cc12` [Example 315, Cc1c(sc2ccc(CNC(═O)c3ccc(Cl)c(Br)c3)cc12)-c4ccnc(N)n4], the pIC50 in assay [1] (setting [3]) and in assay [2] (setting [4]) was greater than 5.30 each time.
`Cc1c(-c2ccnc(N)n2)sc2ccc(CNC(=O)c3ccccc3C(=O)c3ccc(O)cc3)cc12` [Example 316, Cc1c(sc2ccc(CNC(═O)c3ccccc3C(═O)c4ccc(O)cc4)cc12)-c5ccnc(N)n5]: the pIC50 in assay [1] (setting [3]) and in assay [2] (setting [4]) was greater than 5.30 each time.
Take `Cc1c(-c2ccnc(N)n2)sc2ccc(CNC(=O)c3ccccc3C(=O)c3ccc(F)cc3)cc12` [Example 317, Cc1c(sc2ccc(CNC(═O)c3ccccc3C(═O)c4ccc(F)cc4)cc12)-c5ccnc(N)n5]: the pIC50 in assay [1] (setting [3]) is greater than 5.30; in assay [2] (setting [4]), less than 5.30.
The like results for `Cc1c(-c2ccnc(N)n2)sc2ccc(CNC(=O)C(C)c3ccc(-c4ccccc4)c(F)c3)cc12` (stereo not drawn) [Example 318, CC(C(═O)NCc1ccc2sc(c(C)c2c1)-c3ccnc(N)n3)c4ccc(c(F)c4)-c5ccccc5] were, in that order, less than 5.30 and greater than 5.30.
The corresponding values for `Cc1c(-c2ccnc(N)n2)sc2ccc(CNC(=O)c3ccc(I)cc3)cc12` [Example 319, Cc1c(sc2ccc(CNC(═O)c3ccc(I)cc3)cc12)-c4ccnc(N)n4] are less than 5.30 and greater than 5.30.
